Measurements as given in ChEMBL document CHEMBL3243923, “Linked Aryl Aryloxypropanolamines as a new class of lipid catabolis agents” (J Med Chem, 1978).
Calls of active or inactive are those of the source. The calls are words filed in the database; no cut-off is given here.

What was measured:
Mus musculus [1] = assay: Antiobesity activity in mouse assessed as reduction in utero fat at 0.02% administered every day through diet for 10 days measured after day 10 relative to control; assay type: functional; parameters: scale not given: the % may be the effect or the level left
Mus musculus [2] = assay: Antiobesity activity in mouse assessed as reduction in utero fat administered every day through diet for 10 days measured after day 10; assay type: functional; conditions: 240 h
[3] = (§1) Chronic toxicity in po dosed mouse assessed as mortality administered as qd for 21 days; assay type: organism-based; conditions: in vivo, read-out: MNTD
[4] = Therapeutic index, ratio of MNTD for chronic toxicity in po dosed mouse to ED25 for antiobesity activity in mouse assessed as reduction in utero fat; assay type: organism-based; conditions: in vivo, read-out: TI
Mus musculus [5] = assay: Toxicity in mouse assessed as liver hypertrophy at 1000 mg/kg, po administered for 21 days; assay type: organism-based; parameters: dose 1000 mg/kg, route oral; conditions: in vivo, 504 h
Rattus norvegicus [6] = assay: Antiobesity activity in rat assessed as reduction in food intake at 100 mg/kg, po qd administered for 5 days measured every day for 5 days relative to control; assay type: functional; parameters: scale not given: the % may be the effect or the level left
Rattus norvegicus [7] = assay: Antiobesity activity in rat assessed as reduction in body weight at 100 mg/kg, po qd administered for 5 days measured on day 6 relative to control; assay type: functional; parameters: scale not given: the % may be the effect or the level left
Rattus norvegicus [8] = assay: Antiobesity activity in rat assessed as reduction in utero fat at 100 mg/kg, po qd administered for 5 days measured on day 6 relative to control; assay type: functional; parameters: scale not given: the % may be the effect or the level left
Rattus norvegicus [9] = assay: Toxicity in rat assessed as increase in adrenal weight at 100 mg/kg, po qd administered for 5 days measured on day 6 relative to control; assay type: organism-based; parameters: dose 100 mg/kg, route oral; conditions: in vivo, 120 h
Rattus norvegicus [10] = assay: Toxicity in rat assessed as increase in liver weight at 100 mg/kg, po qd administered for 5 days measured on day 6 relative to control; assay type: organism-based; parameters: dose 100 mg/kg, route oral; conditions: in vivo, 120 h
Mus musculus [11] = assay: Antiobesity activity in mouse assessed as reduction in utero fat at 0.04% administered every day through diet for 10 days measured after day 10 relative to control; assay type: functional
Mus musculus [12] = assay: Antiobesity activity in mouse assessed as reduction in utero fat at 0.08% administered every day through diet for 10 days measured after day 10 relative to control; assay type: functional; parameters: scale not given: the % may be the effect or the level left
Canis familiaris [13] = assay: Toxicity in Beagle dog assessed as emesis up to 10 mg/kg administered through gelatin capsule for every week for 6 weeks; assay type: organism-based, Canis lupus familiaris; parameters: dose 10 mg/kg; conditions: in vivo, 1008 h
Mus musculus [14] = assay: Reduction of plasma insulin level in mouse at 0.04% administered every day through diet for 10 days measured on day 10 by double antibody method relative to control; assay type: functional; parameters: scale not given: the % may be the effect or the level left
Rattus norvegicus [15] = species on record: Rattus norvegicus; assay: Toxicity in rat assessed as lymphopenia; assay type: organism-based; conditions: in vivo
Mus musculus [16] = assay: Antiobesity activity in mouse assessed as reduction in utero fat at 0.01% administered every day through diet for 10 days measured after day 10 relative to control; assay type: functional; parameters: scale not given: the % may be the effect or the level left
Rattus norvegicus [17] = species on record: Rattus norvegicus; assay: Toxicity in rat assessed as estrogenic activity; assay type: organism-based; conditions: in vivo
Rhesus monkey = assay: Toxicity in monkey assessed as estrogenic activity; assay type: organism-based, Macaca mulatta; conditions: in vivo
Rattus norvegicus [18] = assay: Antiobesity activity in rat assessed as reduction in food intake at 80 mg/kg administered every day through diet for 5 weeks measured every week for 5 weeks relative to control; assay type: functional; parameters: scale not given: the % may be the effect or the level left
Rattus norvegicus [19] = assay: Antiobesity activity in rat assessed as reduction in food intake at 80 mg/kg, po qd administered for 5 days measured every day for 5 days relative to control; assay type: functional; parameters: scale not given: the % may be the effect or the level left
Rattus norvegicus [20] = assay: Antiobesity activity in rat assessed as reduction in body weight at 80 mg/kg administered every day through diet for 5 weeks measured for 5 weeks relative to control; assay type: functional; parameters: scale not given: the % may be the effect or the level left
Rattus norvegicus [21] = assay: Antiobesity activity in rat assessed as reduction in body weight at 80 mg/kg, po qd administered for 5 days measured on day 6 relative to control; assay type: functional; parameters: scale not given: the % may be the effect or the level left
Rattus norvegicus [22] = assay: Antiobesity activity in rat assessed as reduction in utero fat at 80 mg/kg administered every day through diet for 5 weeks measured after 5th week relative to control; assay type: functional; parameters: scale not given: the % may be the effect or the level left
Rattus norvegicus [23] = assay: Toxicity in rat assessed as increase in adrenal weight at 80 mg/kg administered every day through diet for 5 weeks measured after 5th week relative to control; assay type: organism-based; parameters: dose 80 mg/kg; conditions: in vivo, po, 840 h
Rattus norvegicus [24] = assay: Toxicity in rat assessed as increase in adrenal weight at 80 mg/kg, po qd administered for 5 days measured on day 6 relative to control; assay type: organism-based; parameters: dose 80 mg/kg, route oral; conditions: in vivo, 120 h
Rattus norvegicus [25] = assay: Toxicity in rat assessed as decrease in liver weight at 80 mg/kg administered every day through diet for 5 weeks measured after 5th week relative to control; assay type: organism-based; parameters: dose 80 mg/kg; scale not given: the % may be the effect or the level left; conditions: in vivo, po, 840 h
Rattus norvegicus [26] = assay: Toxicity in rat assessed as decrease in liver weight at 80 mg/kg, po qd administered for 5 days measured on day 6 relative to control; assay type: organism-based; parameters: dose 80 mg/kg, route oral; scale not given: the % may be the effect or the level left; conditions: in vivo, 120 h
Canis familiaris [27] = assay: Toxicity in Beagle dog assessed as emesis up to 150 mg/kg administered through gelatin capsule for every week for 6 weeks; assay type: organism-based, Canis lupus familiaris; parameters: dose 150 mg/kg; conditions: in vivo, 1008 h
Canis familiaris [28] = assay: Antiobesity activity in Beagle dog assessed as decrease in food intake at 4 mg/kg administered every day through gelatin capsule for 6 weeks measured every day 2 hrs post feeding relative to placebo control; assay type: functional, Canis lupus familiaris; parameters: scale not given: the % may be the effect or the level left
Canis familiaris [29] = assay: Antiobesity activity in Beagle dog assessed as decrease in body weight at 4 mg/kg administered every day through gelatin capsule for 6 weeks measured every week for 6 weeks relative to placebo control; assay type: functional, Canis lupus familiaris; parameters: scale not given: the % may be the effect or the level left
Mus musculus [30] = assay: Effect on blood glucose level in mouse at 0.01% administered every day through diet for 10 days measured on day 10 by glucose oxidase method; assay type: functional, organism-based
Mus musculus [31] = assay: Reduction of plasma insulin level in mouse at 0.01% administered every day through diet for 10 days measured on day 10 by double antibody method relative to control; assay type: functional; parameters: scale not given: the % may be the effect or the level left
Canis familiaris [32] = assay: Antiobesity activity in Beagle dog assessed as decrease in food intake at 4 mg/kg administered every day through gelatin capsule for 6 weeks measured 9 days post last dose; assay type: functional, organism-based; parameters: dose 4 mg/kg; conditions: Canis lupus familiaris
Mus musculus [33] = assay: Effect on blood glucose level in mouse at 0.04% administered every day through diet for 10 days measured on day 10 by glucose oxidase method; assay type: functional, organism-based
Mus musculus [34] = assay: Antiobesity activity in mouse assessed as reduction in utero fat at 0.005% administered every day through diet for 10 days measured after day 10 relative to control; assay type: functional; parameters: scale not given: the % may be the effect or the level left
Mus musculus [35] = assay: as §1; assay type: organism-based; conditions: in vivo, 504 h

CC(C)NCC(O)COc1ccc(Oc2ccc(Cl)cc2)cc1 (stereo not drawn)
Activity (Mus musculus [1]): 25%
ED25 (Mus musculus [2]): 18 mg/kg
MTD at 504 h [3]: 100 mg/kg
selectivity ratio [4]: 5.5
Activity (Mus musculus [5]): Non-toxic
Activity (Rattus norvegicus [6]): 22%
Activity (Rattus norvegicus [7]): 1%
Activity (Rattus norvegicus [8]): 18%
Activity (Rattus norvegicus [9]): 8%
Activity (Rattus norvegicus [10]): 11%

CCNC(C)Cc1cccc(C(F)(F)F)c1 (stereo not drawn) [FENFLURAMINE]
Activity (Mus musculus [11]): inactive
Activity (Mus musculus [12]): 20%
Activity (Canis familiaris [13]): Non-toxic

CC(C)NCC(O)COc1c(C(C)(C)C)cc(/C=C/c2ccccc2)cc1C(C)(C)C (racemic) [listing 1 of 2 here]
Activity (Mus musculus [14]): 27%
Activity (Rattus norvegicus [15]): Toxic
Activity (Mus musculus [16]): 26%
ED25 (Mus musculus [2]): 10 mg/kg
MTD at 504 h [3]: 50 mg/kg
selectivity ratio [4]: 5
Activity (Mus musculus [5]): Non-toxic
Activity (Rattus norvegicus [17]): Non-toxic
Activity (Rhesus monkey): Non-toxic
Activity (Rattus norvegicus [18]): 10%
Activity (Rattus norvegicus [19]): 79%
Activity (Rattus norvegicus [20]): 9%
Activity (Rattus norvegicus [21]): 10%
Activity (Rattus norvegicus [22]): 35%
Activity (Rattus norvegicus [23]): 16%
Activity (Rattus norvegicus [24]): 21%
Activity (Rattus norvegicus [25]): 3.4%
Activity (Rattus norvegicus [26]): 9%
Activity (Canis familiaris [27]): Toxic
Activity (Canis familiaris [28]): 40%
Activity (Canis familiaris [29]): 13%

CC(C)NCC(O)COc1c(C(C)(C)C)cc(/C=C/c2cccs2)cc1C(C)(C)C (stereo not drawn)
Activity (Mus musculus [30]): inactive
Activity (Mus musculus [31]): 46%
Activity (Mus musculus [1]): 30%
ED25 (Mus musculus [2]): 6 mg/kg
MTD at 504 h [3]: < 25 mg/kg
selectivity ratio [4]: < 4.1
Activity (Mus musculus [5]): Non-toxic

CC(C)NCC(O)COc1c(C(C)(C)C)cc(/C=C/c2ccccc2)cc1C(C)(C)C (racemic) [listing 2 of 2 here]
Activity (Canis familiaris [32]): inactive
Activity (Mus musculus [33]): inactive

C[C@H](N)Cc1ccccc1 [DEXTROAMPHETAMINE]
Activity (Rattus norvegicus [15]): Toxic
Activity (Mus musculus [11]): 59%
Activity (Mus musculus [16]): 34%

CC(C)NCC(O)COc1c(C(C)(C)C)cc(-c2cccs2)cc1C(C)(C)C.O=C(O)/C=C\C(=O)O (stereo not drawn)
Activity (Mus musculus [34]): 33%
Activity (Mus musculus [35]): Toxic
